From patent publication US20170266319A1, “METHODS AND COMPOSITIONS FOR TREATING CONDITIONS ASSOCIATED WITH SPINAL CORD INJURY” (priority 2016, published 2017)
“Also recorded” adds a separate entry of the source.

Key:
Type in all cases: in vivo
[1] = system: hM4Di-expressing Vglut2+ spinal interneurons; experiment: Colorectal distension (CRD) and c-Fos analyses after chemogenetic silencing; settings: T3 SCI Vglut2-Cre mice injected with AAV-hSyn-DIO-hM4Di-mCherry; CNO 1.0 mg/kg i.p. 30 min before CRD, day 28 post-injury, vs vehicle
Description: Colorectal distension was induced as previously reported3, 12, 13 with minor modification. A 4-French, 60 mm balloon-tipped catheter (Swan-Ganz monitoring catheter model 116F4; Edwards Life Sciences) was inserted 1.5 cm into the rectum before securing the catheter to the tail with surgical tape. The balloon was inflated with 0.2 ml of air for 30 sec then deflated 60 sec. This 90 sec cycle was repeated for 90 min. Mice were perfused 30 min after the final cycle of inflation. The number of c-Fos^+ cells were counted and analyzed in 2 representative horizontal spinal cord sections at T4-9 level from multiple SCI animals with or without CRD stimulation. The number of animals analyzed were: uninjured with or without CRD, n=3/group; T3 SCI (day 28) without CRD, n=3; T3 SCI (day 28) with CRD, n=5; Vglut2-Cre; cc-EGFP+T3 SCI (day 28) with CRD, n=3; Chat-Cre; cc-EGFP+T3 SCI (day 28) with CRD, n=3 (FIG. 7). To evaluate the effects of DREADD in mice with CRD-induced activation of visceral-sympathetic reflex, CNO (1.0 mg/kg body weight, i.p.; Sigma) or vehicle saline was injected into Vglut2-Cre+T3SCI+AAV8-hSyn-DIO-hM4D(Gi)-mCherry mice at day 28 post-injury, 30 min before the induction of CRD (n=3 each) (FIG. 9).

[2] = system: Vglut2+ spinal interneurons expressing hM4Di DREADD; experiment: DREADD experiment: T3 SCI immune suppression, Vglut2-Cre mice; settings: T3 SCI Vglut2-Cre mice with AAV8-hSyn-DIO-hM4D(Gi)-mCherry; CNO 1 mg/kg 2x/day, day 14-27 post-injury; day 28
Description: (§1) AAV8-hSyn-DIO-hM4Di-mCherry (AAV8-hSyn-DIO-hM4D(Gi)-mCherry; 7×10^12 vg/ml; UNC Vector Core) was injected into T5 and 7 levels of the spinal cord of Vglut2-Cre, Chat-Cre, or WT mice at P14 (0.8 μl/site, 0.25 mm lateral, 0.5 mm in depth). […] T3 SCI was induced at 8 weeks old, and then CNO (1.0 mg/kg body weight, i.p.; Sigma) was injected twice per day from day 14 to 27 post-injury (FIG. 3b). Small cohorts of mice from each colony were used as they reached the appropriate age for experimentation. […]
(§2) Spleens were harvested in Flow Cytometry Staining Buffer (eBioscience) and cell suspensions were made by expressing spleen tissue through a cell strainer using the plunger of a 10 ml syringe. […] Splenocytes were counted on a hemocytometer and 5×10^5 cells were incubated with Fc-block (anti-mouse-CD16/CD32 antibody; eBioscience). […] Splenocytes (10,000 events/sample) were analyzed using a FACSCanto flow cytometer with FACSDiva software (BD Biosciences). […] The number of each subset was calculated as the percentage of labeled cells multiplied by the total number of splenocytes.

[3] = system: Chat+ spinal interneurons expressing hM4Di DREADD; experiment: DREADD experiment: T3 SCI immune suppression, Chat-Cre mice; settings: T3 SCI Chat-Cre mice with AAV8-hSyn-DIO-hM4D(Gi)-mCherry; CNO 1 mg/kg 2x/day, day 14-27 post-injury
Description: as §1, §2

For `C[N+]1([O-])CCN(C2=Nc3cc(Cl)ccc3Nc3ccccc32)CC1` [CNO, clozapine-N-oxide], the “c-Fos expression elicited by colorectal distension (silencing of hM4DGi+ spinal neurons)” value [1] was “reduces c-Fos expression; also recorded: significant silencing”, the Splenic atrophy [2] was “reversed” and the “Total numbers of splenocytes, including CD4+ and CD8+ T cells and B220+ B cells” value [2] was “restored to pre-injury levels”. The Immune protection [3] was “modest non-significant immune protection”.
